Source: PMC5667506, “Potent and selective inhibition of SH3 domains with dirhodium metalloinhibitors” (Chemical Science, 2015)

Key:
[1] = target: T1, Lyn SH3 H78A and H96A double mutant (Homo sapiens, UniProt P07948, H78A/H96A); experiment: Binding to Lyn SH3 H78A and H96A double mutant; details: read-out: affinity
T1 construct: The lyn SH3 domain was amplified by PCR using Phusion DNA polymerase; GST (N, cleaved yes); made in house; host or cells: E. coli BL21 (DE3)
Experimental: The remarkable 6 nM affinity, far stronger than that of any reported non-protein ligand for SH3 domains, led us to study the structural basis of the observed affinity. […] The H78A and H96A double mutant binds much more weakly (>5 μM). […] That the majority of the stabilization energy comes from the first histidine coordination is consistent with the negative cooperativity generally seen for axial coordination to rhodium(II): a second coordination in solution is roughly two orders of magnitude less favorable.[40]–[43]
Abl SH3 domain preparation. The abl SH3 domain was amplified by PCR using Phusion DNA polymerase (Finnzymes). The
reactions were performed following manufacture's protocol with Phusion HF buffer and 5% DMSO. Primers were designed as
follows: 5'-[…]-3' (BamHI site underlined) and a reverse primer, 5'-
-3' (EcoRI site underlined). The resultant product was digested with
BamHI and EcoRI and subcloned into BamHI-EcoRI sites of pGex-KTO. Confirmed PCR fidelity by sequencing.
Hck SH3 domain preparation. The hck SH3 domain was amplified by PCR using Phusion DNA polymerase (Finnzymes). The
Lyn SH3 domain preparation. The lyn SH3 domain was amplified by PCR using Phusion DNA polymerase (Finnzymes). The […]
assessed by SDS-PAGE using 12% Bis-Tris gels (Invitrogen). […]
concentrated, and aliquoted for storage at –80 °C. Concentration was determined using the absorbance at 280 nm (NanoDrop, […]

Src SH3 domain = target: T2, Src SH3 domain (Homo sapiens, UniProt P12931); experiment: ITC binding to Src SH3 domain
T2 construct: fyn, yes, lck, and src SH3 protein domains were prepared following published procedures; made in house
Experimental: All chemical reagents were purchased from Sigma-Aldrich and were used without further purification.
Peptide synthesis. All peptides were synthesized manually or with an AAPPTEC APEX 396 Automated Multipeptide Synthesizer using standard solid-phase Fmoc protocols.1,2 Peptides were prepared as C-terminal amides using Rink amide MBHA resin (AAPPTEC) and were acetylated at the N-terminus prior to cleavage from the resin. Peptides and metallopeptides were purified by reverse-phase HPLC.
HPLC separation. Reverse-phase HPLC was performed on a Shimadzu CBM-20A instrument with Phenomenex Jupiter 4μ Proteo 90A (250 × 15 mm preparative) and Phenomenex Jupiter 4μ Proteo 90A (250 × 4.6 mm analytical) columns. The columns were eluted with a gradient of acetonitrile in water (10-90%) (flow rates of 8 mL/min and 1 mL/min for preparative and analytical columns, respectively). Trifluoroacetic acid (0.1%) was added to all eluents.
FPLC separation. Analytical FPLC was performed on an ÄKTA instrument with Superdex Peptide PE 7.5/300 column. The column was equilibrated with buffer (150 mM NaCl, 50 mM Tris, pH 7.0) at flow rate of 0.2 mL/min.
ITC analysis. ITC experiments were carried out on a VP-ITC instrument (MicroCal) at 25 °C. Titrations of 275 μM peptide into 18 μM SH3 domain proteins were used for all titrations, except for the titration of S2ERh into Lyn SH3 domain, where the lower concentrations of 69 µM S2ERh peptide and 4 µM Lyn SH3 were used to attain a c-value for the titration within the accepted limts for ITC experiments ([…]).3
Heats of dilutions were measured independently for each experiment by titrating 275 μM peptide into buffer (20 mM phosphate buffer, pH 7, 150 mM NaCl, 1 mM EDTA). All experimental data were fitted using a one set of sites binding model in Origin software (MicroCal) except for the data with Hck SH3 domain. With Hck only, the non-peptide specific binding of dirhodium tetraacetate to Hck SH3 domain could not be treated as negligible, despite the very weak interaction (88 µM), due to the larger enthalpy contribution observed for non-specific binding to this SH3 domain, so the titrations of peptide into Hck were fitted using a 2 set of sites binding model where the stoichiometry for the second set of sites was fixed at 2.0. […]
Mass spectrometry. ESI-MS was performed on a Bruker Daltonics micrOTOF instrument.
Known compounds and proteins. Several metallopeptides (S2ERh, L3ERh, R5ERh, and 13DRh) were reported previously and were prepared by known protocols;4 alkyne-diazo 3,5 3-azido-7-hydroxycoumarin6 were synthesized following reported procedures; fyn, yes, lck, and src SH3 protein domains were prepared following published procedures.5 Abl, hck, and lyn SH3 domain plasmids were adapted from the previously reported genes;7 the gene templates were obtained from Addgene, ID

T1 sequence (P07948 63-123 H78A/H96A limits assumed): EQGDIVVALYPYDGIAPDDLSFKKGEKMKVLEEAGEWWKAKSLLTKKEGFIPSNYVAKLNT

Substance | Kd [1] [nM] | Stoichiometry (Src SH3 domain) | -TΔS (Src SH3 domain; 25 °C) [kcal/mol] | Kd (Src SH3 domain; 25 °C) [nM] | ΔG (Src SH3 domain; 25 °C) [kcal/mol] | ΔH (Src SH3 domain; 25 °C) [kcal/mol]
AcVELARRPLPPLPN-NH2 (Ac-VELARRPLPPLPN-NH2; also: Glu2 side-chain carboxylate bound to Rh2(OAc)3) [S2E^Rh, rhodium(II) metallopeptide made from S2E peptide (Ac…-NH2) and Rh2(tfa)(OAc)3] | > 5000 | – | – | – | – | –
AcVELARRPLPPLPN-NH2 [S2E^Rh] | – | 1.1 | 7.2 | 327 | -8.8 | -16.0
